No end group written: not given here. *: point of attachment. For = O=C*

Holding throughout (type): cell-based, human
Assay [1] relates to KG1a cells. Nature of the assay: ROS production by flow cytometry, KG1a cells. Particulars: 72 h; for ROS production (MFI): 2D culture on HS5 stromal cells; for ROS production (mean fluorescence intensity): monoculture. On the procedure: (§1) A panel of human myeloid leukemia cell lines (HL60, K562, KG1a, THP1 and U937) and HS-5 mesenchymal stromal cells lineage were cultured in Roswell Park Memorial Institute medium-1640 (RPMI; Sigma) containing 10% Fetal Bovine Serum (Gibco), glutamine (2 mM; Sigma), penicillin (100 μg/mL; Sigma), streptomycin (100 μg/mL; Sigma), and amphotericin B (0.25 μg/mL; Gibco). The cells were maintained in a humidified atmosphere at 37° C. and 5% CO2 and the experiments were performed when they reached exponential growth. For the assays, cells were seeded on a 24-well plate and treated or not with Foxy-5 for 72 hours.
Cells treated with Foxy or with vehicle were collected and intracellular ROS generation was measured by flow cytometry following staining with DCFDA ([…]; Sigma). Acquisition of cells was performed on a FACScalibur flow cytometer (BD) and analysis was carried out using the FlowJo software.
Leukemia cell lines were treated for 72 h with Foxy-5, at doses of 50 and 100 μM, or vehicle, stained with DCFHA dye, and analyzed by flow cytometry.
For orientation: A flow cytometer gives signals particle by particle.

Assay [2] has as its system HL60 cells. Nature of the assay: Cell growth assay, HL60 cells. The following applies: Foxy-5 100 μM, 72 h. On the procedure: as §1
Cells treated with Foxy or with vehicle were collected and cell number was evaluated by manual counting in monoculture and by microscopy with Image J software analysis in 2D culture.
Next, we evaluated the proliferation rates since this process is modulated by ROS. We treated the cells with Foxy-5 (100 μM) or with vehicle (DMSO) during 72 hours, and then cell growth was analyzed by counting the cells in monoculture, manually, or by the Image J software analysis of the 2D cultures. […] Similar results were obtained in the 2D culture system using leukemia cells and HS-5 mesenchymal stromal cells.

In assay [3] the test system is U937 cells. Nature of the assay: Cell cycle assay, U937 cells. The following applies: 72 h. The procedure: as §1
(§2) Cells treated with Foxy or with vehicle were collected and fixed, at least, 24 hours in 70% ethanol. DNA was stained with a buffer containing iodide propidium (20 μg/mL; Sigma) and RNase A (10 μg/mL; Sigma). Cell fluorescence was detected with a FACSCalibur flow cytometer (BD). The proportions of cells in the cell cycle phases were analyzed by Modifit (Verify Software House Inc), according to DNA distributions.
(§3) As we observed a reduction in the leukemic proliferation after Foxy-5 treatment, we also analyzed the cell cycle phases. Leukemia cell lines were treated for 72 hours with Foxy-5, at doses of 50 μM and 100 μM, or vehicle, stained with the Piper buffer containing RNAse and iodeto propidium and then analyzed by flow cytometry.

In assay [4] the test system is K562 cells. Nature of the assay: Cell cycle assay, K562 cells. Particulars: 72 h. On the procedure:
as §1, §2, §3

The subject of assay [5] is HL60 cells. The experiment in a line: Transwell chemotaxis assay toward CXCL12, HL60 cells. The following applies: HL60, Foxy-5 100 μM 72 h pretreatment, CXCL12 100 ng/mL, 24 h. On the procedure: Leukemic cell lines, pretreated or not with Foxy-5 (72 hours of stimulation) were tested for chemotaxis in Transwell-based assays for Chemotaxis (6.5 mm diameter, 8 μm pore size; Corning). Polycarbonate membranes were incubated with poly-L-lysine (1 mg/mL) for 1 hour at 37° C. followed by saline buffer washing. Briefly, cells were collected, washed with media containing bovine serum albumin (0.1% BSA; Sigma), and then seeded at a density of 5×10^5 cells into the upper chamber of the transwell. The lower chamber was filled with media containing 0.5% BSA (negative control), media containing 10% FBS (positive control) and media 5 containing 0.5% BSA with CXCL12 (100 ng/ml; Peprotech) (Melo et al., 2014). Following 6 h or 24 h of incubation at 37° C., cells that migrated into the lower chamber were collected, centrifuged, resuspended in saline buffer and counted. The number of migrated cells was expressed as a percentage of the input, i.e., the cells number applied directly to the lower compartment in parallel wells. The migration of cells was normalized to 100%+/−standard deviation (SD) of triplicates (Favaro et al., 2013).
We investigated whether restoring of WNT5A could enable the modulation CXCL12-induced chemotaxis of leukemia cells. […]

Assay [6] has as its system HL60 cells. Nature of the assay: Autophagy assay (acridine orange), HL60 cells. The following applies: HL60, 2D culture, 72 h. On the procedure:
as §1
(§4) Cells treated with Foxy or with vehicle were collected and acids vesicles were measured by flow cytometry following staining with Acridine Orange (0.01 mg/mL; Sigma). Acquisition of cells was performed on a FACScalibur flow cytometer (BD) and analysis was carried out using the FlowJo software 4.
(§5) As autophagy is required for sustaining leukemia cell growth by induction of ROS production, we measured the levels of acidic granule formation by flow cytometry after Foxy-5 or vehicle treatment. […]

The subject of assay [7] is KG1a cells. The experiment in a line: Autophagy assay (acridine orange), KG1a cells. Particulars: 2D culture, 72 h. The procedure:
as §1, §4, §5

Regarding “Foxy-5: Formylated hexapeptide fragment of WNT5A: MDGCEL (SEQ. ID. NO. 3) with methionine in position 1 as N-formyl methionine; WNT5A-mimicking compound (For-MDGCEL; listed as Homo sapiens)”, the “ROS production (MFI)” value in assay [1] (Foxy-5 50 μM) is listed as 75.03 (range 75.03-77.70) MFI; in assay [1] (Foxy-5 100 μM), 69.00 (range 68.00-72.00) MFI. In addition, the “ROS production (mean fluorescence intensity)” value in assay [1] (Foxy-5 50 μM) is reported as 36.30 (range 35.80-36.80) MFI; in assay [1] (Foxy-5 100 μM) it was 29.72 (range 28.10-31.33) MFI. The “reduced cell growth compared to vehicle treated cells” value in assay [2] (HL60, 2D culture with HS-5 stromal cells) was 1.56 fold decrease; in assay [2] (HL60, monoculture), 1.22 fold decrease. In addition, the “cells in G0/G1 cell cycle phase (average)” value in assay [3] (U937, co-cultured with HS5 stromal cells, Foxy-5 50 μM) is reported as 77.37%; in assay [3] (U937, co-cultured with HS5 stromal cells, Foxy-5 100 μM) it was 91.52%; in assay [3] (U937, monoculture, Foxy-5 50 μM), 55.07%; in assay [3] (U937, monoculture, Foxy-5 100 μM) it was 56.64%; in assay [4] (K562, co-cultured with HS5 stromal cells, Foxy-5 50 μM) it was 65.32%; in assay [4] (K562, co-cultured with HS5 stromal cells, Foxy-5 100 μM) it was 83.52%. The “cells in G0/G1 cell cycle phase (average)” value in assay [4] (K562, monoculture, Foxy-5 50 μM) was determined as 59.00%; in assay [4] (K562, monoculture, Foxy-5 100 μM), 83.51%. For the same substance, the “CXCL12-induced chemotaxis (migrated cells as percentage of the input, average)” value in assay [5] is recorded as 4.31%. Moreover, the “autophagy (acidic granule formation, acridine orange, average)” value is on record as 10.04 (range 7.20-11.93) MFI in assay [6] (Foxy-5 50 μM), 6.60 (range 5.42-6.69) MFI in assay [6] (Foxy-5 100 μM), 27.30 (range 27.20-29.83) MFI in assay [7] (Foxy-5 50 μM) and 21.55 (range 19.05-22.40) MFI in assay [7] (Foxy-5 100 μM).
